Results published in the supplement of paper PMC8149375.

Assays:
Conditions in all cases: treatment: drug alone; 5 days
769-P [1] = assay: AUC of dose-response viability curve, drug alone (arbitrary (AUC of normalised viability)); higher = less growth inhibition
Description: (§1)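 Primary HTS: 8 RCC cell lines treated with 8 doses (up to 10 uM) of each library drug alone for 5 days; viability read by CellTiter-Glo and normalised to DMSO. GI50 was fitted with XLfit (4-parameter), AUC is the area under the dose-response curve, and minimum viability is the lowest fraction of DMSO viability across doses.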

CAKI-1 [2] = assay: as above
Description: as §1

ACHN [3] = assay: as above
Description: as §1

TK-10 [4] = assay: as above
Description: as §1

UO-31 [5] = assay: as above
Description: as §1

SN12C [6] = assay: as above
Description: as §1

786-O [7] = assay: as above
Description: as §1

A498 [8] = assay: as above
Description: as §1

769-P [9] = assay: GI50, drug alone; higher = less potent
Description: as §1

CAKI-1 [10] = assay: GI50, drug alone; higher = less potent
Description: as §1

ACHN [11] = assay: GI50, drug alone; higher = less potent
Description: as §1

TK-10 [12] = assay: GI50, drug alone; higher = less potent
Description: as §1

UO-31 [13] = assay: GI50, drug alone; higher = less potent
Description: as §1

SN12C [14] = assay: GI50, drug alone; higher = less potent
Description: as §1

786-O [15] = assay: GI50, drug alone; higher = less potent
Description: as §1

A498 [16] = assay: GI50, drug alone; higher = less potent
Description: as §1

769-P [17] = assay: minimum viability across doses, drug alone, relative to DMSO (fraction); higher = less growth inhibition
Description: as §1

CAKI-1 [18] = assay: as above
Description: as §1

ACHN [19] = assay: as above
Description: as §1

TK-10 [20] = assay: as above
Description: as §1

UO-31 [21] = assay: as above
Description: as §1

SN12C [22] = assay: as above
Description: as §1

786-O [23] = assay: as above
Description: as §1

A498 [24] = assay: as above
Description: as §1

Structure (SMILES) | GI50, drug alone (ACHN [11]) [µM] | GI50, drug alone (786-O [15]) [µM] | AUC of dose-response viability curve (769-P [1]) | AUC of dose-response viability curve (CAKI-1 [2]) | AUC of dose-response viability curve (ACHN [3]) | AUC of dose-response viability curve (TK-10 [4]) | AUC of dose-response viability curve (UO-31 [5]) | AUC of dose-response viability curve (SN12C [6]) | AUC of dose-response viability curve (786-O [7]) | AUC of dose-response viability curve (A498 [8]) | GI50, drug alone (769-P [9]) [µM] | GI50, drug alone (CAKI-1 [10]) [µM] | GI50, drug alone (TK-10 [12]) [µM] | GI50, drug alone (UO-31 [13]) [µM] | GI50, drug alone (SN12C [14]) [µM] | GI50, drug alone (A498 [16]) [µM] | minimum viability across doses (769-P [17]) | minimum viability across doses (CAKI-1 [18]) | minimum viability across doses (ACHN [19]) | minimum viability across doses (TK-10 [20]) | minimum viability across doses (UO-31 [21]) | minimum viability across doses (SN12C [22]) | minimum viability across doses (786-O [23]) | minimum viability across doses (A498 [24])
CC(C)c1cnn2c(NCc3ccccc3)cc(NCCCCCCN)nc12.Cl [BS-181 HCl] | > 10 | 9.75 | 3.58 | 2.84 | 3.3 | 2.97 | 5.07 | 3.22 | 3.43 | 4.29 | > 10 | > 10 | > 10 | > 10 | > 10 | > 10 | 0.902 | 0.753 | 0.54 | 0.696 | 1.15 | 0.842 | 0.424 | 1.1
CS(=O)(=O)O.O=C(Nc1cccc(Cl)c1)Nc1ncc(CCNc2ncnc3ccsc23)s1 [SNS-314] | 0.168 | 0.0504 | 2.2 | 1.36 | 1.77 | 2.73 | 4.36 | 2.54 | 1.76 | 4.02 | 0.506 | 0.0361 | > 10 | > 10 | 1.75 | > 10 | 0.343 | 0.172 | 0.17 | 0.536 | 0.891 | 0.245 | 0.159 | 0.637
Cc1cc(C)c(/C=C2\C(=O)Nc3ccccc32)[nH]1 [Semaxanib (SU5416)] | > 10 | > 10 | 3.45 | 3.45 | 2.92 | 3.2 | 4.68 | 3.42 | 3.12 | 3.76 | > 10 | > 10 | > 10 | > 10 | > 10 | > 10 | 0.892 | 0.902 | 0.76 | 0.778 | 0.928 | 0.911 | 0.778 | 0.97

Further lines, with some results ahead:

GI50, drug alone (ACHN [11]) [µM] | GI50, drug alone (786-O [15]) [µM] | Structure (SMILES) | AUC of dose-response viability curve (769-P [1]) | AUC of dose-response viability curve (CAKI-1 [2]) | AUC of dose-response viability curve (ACHN [3]) | AUC of dose-response viability curve (TK-10 [4]) | AUC of dose-response viability curve (UO-31 [5]) | AUC of dose-response viability curve (SN12C [6]) | AUC of dose-response viability curve (786-O [7]) | AUC of dose-response viability curve (A498 [8]) | GI50, drug alone (769-P [9]) [µM] | GI50, drug alone (CAKI-1 [10]) [µM] | GI50, drug alone (TK-10 [12]) [µM] | GI50, drug alone (UO-31 [13]) [µM] | GI50, drug alone (SN12C [14]) [µM] | GI50, drug alone (A498 [16]) [µM] | minimum viability across doses (769-P [17]) | minimum viability across doses (CAKI-1 [18]) | minimum viability across doses (ACHN [19]) | minimum viability across doses (TK-10 [20]) | minimum viability across doses (UO-31 [21]) | minimum viability across doses (SN12C [22]) | minimum viability across doses (786-O [23]) | minimum viability across doses (A498 [24])
3.35 | 5.94 | Nc1ncnc2c1c(-c1cccc(OCc3ccccc3)c1)cn2[C@H]1C[C@H](CN2CCCC2)C1 [NVP-ADW742] | 3.14 | 3.01 | 2.38 | 2.63 | 3.24 | 3.2 | 2.71 | 3.59 | > 10 | 6.48 | 5.26 | 8.26 | > 10 | 9.56 | 0.478 | 0.362 | 0.275 | 0.329 | 0.0137 | 0.612 | 0.19 | 0.377
1.6 | 3.95 | Cl.Cl.Fc1cc(-c2cccc3ncc(-c4cnn(C5CCNCC5)c4)nc23)cc(F)c1CN1CCOCC1 [NVP-BSK805] | 3.09 | 2.74 | 2.62 | 2.63 | 4.15 | 2.87 | 2.23 | 3.8 | 5.73 | 2.39 | 3.4 | 8.51 | 7.39 | 7.77 | 0.0465 | 0.0193 | 0.0296 | 0.212 | 0.00823 | 0.331 | 0.00287 | 0.0305
